# Assay results published in paper PMC10680098 (Nature, 2023).
# Legend:
# [1] = in vitro intrinsic clearance; assay type: in vitro ADME; conditions: metabolic stability, details in SI
# [2] = test system: CFTR, cystic fibrosis transmembrane conductance regulator; experiment: CFTR rescue activity; assay type: cell-based; conditions: result given in words only; RC50 value is in Fig. 4b, which could not be read
# [3] = solubility at different pH values; assay type: physicochemical; conditions: at all measured pH values
SMILES,in vitro intrinsic clearance (CLint) [1],"activity (half-maximal rescue concentration, RC50) [2]",in vitro intrinsic clearance (CLint) ([1]; listed as Cuba-Lumacaftor),solubility compared to the parent benzene-containing drug [3]
"Cc1ccc(NC(=O)C2(c3ccc4c(c3)OC(F)(F)O4)CC2)nc1-c1cccc(C(=O)O)c1 [compound 57, reference compound]",11.96 μL/min/10^6 cells,–,–,–
"CCN(CC)CCNC(=O)C12C3C4C1C1C2C3C41NC(C)=O (stereo not drawn) [compound 58, Cuba-Acecainide]",< 7 μL/min/10^6 cells,–,–,–
"Cc1ccc(NC(=O)C2(c3ccc4c(c3)OC(F)(F)O4)CC2)nc1C12C3C4C5C3C1C5(C(=O)O)C42 (stereo not drawn) [compound 56, Cuba-Lumacaftor]",< 7 μL/min/10^6 cells,high activity,6.98 μL/min/10^6 cells,improved solubility
